Data: article PMC12040169 (PLOS Biology, 2025)

Experiment: in vitro
Conditions: human, hela cells, % viability

Row | SMILES | viability at 28.5 h, 10 µM [%]
1 | O=S(=O)(Nc1ccc(-c2nnn[nH]2)cc1)c1c(F)cccc1F [CBK154734] | 92.2
2 | CCNC(=S)N1CCN(C(=O)c2cccc(OC)c2)CC1 [CBK154778] | 97.3
3 | CCOC(=O)C1CCCN(S(=O)(=O)c2sc3ccc(Cl)cc3c2C)C1 (stereo not drawn) [CBK154797] | 97.2
4 | Clc1cncc(-c2cc3ccccc3[nH]2)n1 [CBK154865] | 101
5 | O=S(=O)(c1ccccc1)c1nc(N2CCNCC2)cn2ccnc12 [CBK154875T] | 94.7
6 | COc1cc(CNC(=O)c2cnoc2-c2ccc(Br)cc2)cc(OC)c1OC [CBK154893] | 110
7 | Cc1ccc(CNC(=O)c2cnoc2-c2ccc(Br)cc2)cc1F [CBK154896] | 93.8
8 | Cc1ccc(-c2oncc2C(=O)NCc2ccc(S(N)(=O)=O)cc2)cc1 [CBK154912] | 102
9 | O=C(NC1CC1)c1cnoc1-c1ccccc1 [CBK154935] | 106
10 | O=C(NCc1ccc(Cl)c(Cl)c1)c1cnoc1-c1ccccc1Cl [CBK154942] | 98.4
11 | O=C(OCc1ccccc1)N1CCN(C(=O)c2cc3cc(Br)ccc3[nH]2)CC1 [CBK154991] | 97.5
12 | CCc1ccc(CNC(=O)Cn2nnc(-c3ccc(CNC4CCC4)cc3)n2)cc1 [CBK155006T] | 111
13 | CCc1ccc(CNC(=O)Cn2nnc(-c3ccc(CNCCc4ccc(OC)c(OC)c4)cc3)n2)cc1 [CBK155008T] | 77.2
14 | CS(=O)(=O)c1ccc(CN2C(=O)CC3(CCN(C(=O)c4ccc([N+](=O)[O-])cc4)CC3)C2=O)cc1 [CBK155019] | 99
15 | COc1cccc(C(=O)N2CCC(NC(=O)c3ccc(C(F)(F)F)cc3)CC2)c1 [CBK155022] | 104
16 | COc1cccc(C(=O)N2CCC(NC(=O)c3ccccc3C(F)(F)F)CC2)c1 [CBK155024] | 99.4
17 | COc1cccc(C(=O)N2CCC(NC(=O)c3cc(F)ccc3F)CC2)c1 [CBK155026] | 99.4
18 | COc1cccc(C(=O)N2CCC(NC(=O)c3csc(-c4ccccc4)n3)CC2)c1 [CBK155030] | 90.4

Row | SMILES | viability at 28.5 h, 10 µM [%]
19 | CN(C)C(=O)c1ccc(-c2ccc(OC3CCN(C(=O)CCc4cccnc4)CC3)nc2)cc1 [CBK155049] | 93.3
20 | O=C(O)c1cccc(NS(=O)(=O)c2ccc(F)cc2F)c1 [CBK155084] | 95.4
21 | CN(C)CCN(Cc1ccccc1)C(=O)NCc1ccc(C#N)cc1 [CBK155097] | 89.2
22 | CN(C)CCN(Cc1ccccc1)C(=O)NCc1ccc(Cl)cc1 [CBK155106] | 94.2
23 | CCOC(=O)N1CCC(NC(=O)N(CCN(C)C)Cc2ccccc2)CC1 [CBK155121] | 109
24 | CCN(Cc1ccncc1)C(=O)NCc1cc(C)on1 [CBK155122] | 85.2
25 | CCN(Cc1ccncc1)C(=O)NCCCN1CCN(C)CC1 [CBK155123] | 108
26 | CCN(Cc1ccncc1)C(=O)NCC1CCCCC1 [CBK155132] | 103
27 | CCN(Cc1ccncc1)C(=O)Nc1ccc2[nH]ccc2c1 [CBK155136] | 99.5
28 | CCN(Cc1ccncc1)C(=O)NCc1c(Cl)cccc1Cl [CBK155144] | 107
29 | CCN(Cc1ccncc1)C(=O)NCc1ccc(F)cc1 [CBK155146] | 96.4
30 | CCN(CC)CCNC(=O)N(CC)Cc1ccncc1 [CBK155151] | 105
31 | CCN(Cc1ccncc1)C(=O)NC(C)c1ccccc1 (stereo not drawn) [CBK155156] | 101
32 | Cc1cnc(CNC(=O)N2CCc3ccccc3C2)cn1 [CBK155166] | 97.3
33 | CSCCCNC(=O)N1CCN(c2ccccc2)CC1 [CBK155170] | 96.5
34 | O=C(NCc1cccnc1)N1CCN(c2ccccc2)CC1 [CBK155178] | 98.2
35 | O=C(Nc1ccc(Cl)cc1)N1CCN(c2ccccc2)CC1 [CBK155188] | 101
36 | O=C(NCc1c(Cl)cccc1Cl)N1CCN(c2ccccc2)CC1 [CBK155194] | 98.5
